# Results as given in US3965109A, “Certain aryl amino pyridines” (priority 1971, dated 1976).
# Experiments:
# [1] = tested on: Pieris brassicae (cabbage white caterpillars); experiment: Pest toxicity test; format: in vivo; settings: 0.1% by weight, 2 days
# Megoura viceae = experiment: Pest toxicity test; format: in vivo; settings: 0.1% by weight; broad bean; 2 days
# [2] = tested on: Aedes aegypti (mosquito adults); experiment: Pest toxicity test; format: in vivo; settings: 0.01% by weight; plywood; 1 day
# Pea = experiment: Further herbicidal test, various rates; format: in vivo; settings: 5 kg/hectare; scale 0 to 5 (complete kill)
# [3] = tested on: Agriolimax reticulatus (slugs); experiment: Molluscicidal activity test; format: in vivo, Agriolimax reticulatus (Mull); settings: pellet with 4% by weight; 6 days; 10°C
# Method: A weighed sample of the compound under test was dissolved in 0.5 c.c. of an ethanol and acetone mixture 50:50 v/v). The solution was diluted with 0.5 cc water and poured onto a calf feeding pellet in a glass Petri dish. The pellet was then air dried for 24 hours. The weight of compound used was chosen so that the dried pellet contained 4% by weight of the active ingredient. Two replicates each consisting of a plastic Petri dish containing a pellet, 2 slugs, and a moistened filter paper to maintain a high relative humidity were used in each test. The dishes were left in a cold room (10°C.) After 6 days the kill was assessed.
# The slugs used were Agriolimax reticulatus (Mull), and they had been starved for 24 hours before the commencement of the tests.
# Aphis fabae = experiment: Pest toxicity test; format: in vivo; settings: 0.1% by weight; broad bean; 2 days
# Maize = experiment: Herbicidal test, pre- and post-emergence; format: in vivo; settings: 10 kg/ha; scale 0 to 3 (complete kill)
# Rice = experiment: Further herbicidal test, various rates; format: in vivo; settings: 5 kg/hectare; scale 0 to 5 (complete kill)
# Kale = experiment: Further herbicidal test, various rates; format: in vivo; settings: 5 kg/hectare; scale 0 to 5 (complete kill)
# [4] = tested on: Phaedon cochleariae (mustard beetles); experiment: Pest toxicity test; format: in vivo; settings: in vivo
# Wheat = experiment: Herbicidal test, pre- and post-emergence; format: in vivo; settings: 10 kg/ha; scale 0 to 3 (complete kill)
# Carrot = experiment: Further herbicidal test, various rates; format: in vivo; settings: 5 kg/hectare; scale 0 to 5 (complete kill)
# Onion = experiment: Further herbicidal test, various rates; format: in vivo; settings: 5 kg/hectare; scale 0 to 5 (complete kill)
# Tomato = experiment: Herbicidal test, pre- and post-emergence; format: in vivo; settings: 10 kg/ha; scale 0 to 3 (complete kill)
# [5] = tested on: Musca domestica (houseflies); experiment: Pest toxicity test, contact test; format: in vivo; settings: 0.1% by weight; milk/sugar; 2 days; flies sprayed directly
# [6] = tested on: Aedes aegypti (mosquito larvae); experiment: Pest toxicity test; format: in vivo; settings: 0.01% by weight; water; 1 day
# Oat = experiment: Further herbicidal test, various rates; format: in vivo; settings: 5 kg/hectare; scale 0 to 5 (complete kill)
# Sugar beet = experiment: Further herbicidal test, various rates; format: in vivo; settings: 5 kg/hectare; scale 0 to 5 (complete kill)
# [7] = tested on: Tetranychus telarius (red spider mites, eggs); experiment: Pest toxicity test; format: in vivo; settings: 0.1% by weight; French bean; 3 days
# Uncinula necator (vine) = experiment: Fungicidal test against foliar disease D (foliage spray plus soil drench); format: in vivo; settings: 100 ppm spray and drench; 10 days
# [8] = tested on: Tetranychus telarius (red spider mites, adults); experiment: Pest toxicity test; format: in vivo; settings: 0.1% by weight; French bean; 3 days
# [9] = tested on: Plutella maculipennis (diamond back moth larvae); experiment: Pest toxicity test; format: in vivo; settings: in vivo
# Barley = experiment: Further herbicidal test, various rates; format: in vivo; settings: 5 kg/hectare; scale 0 to 5 (complete kill)
# Lettuce = experiment: Herbicidal test, pre- and post-emergence; format: in vivo; settings: 10 kg/ha; scale 0 to 3 (complete kill)
# [10] = tested on: Puccinia recondita (wheat); experiment: Fungicidal test against foliar disease A (foliage spray plus soil drench); format: in vivo; settings: 100 ppm spray and drench; 10 days
# [11] = tested on: Plasmopara viticola (vine); experiment: Fungicidal test against foliar disease C (foliage spray plus soil drench); format: in vivo; settings: 100 ppm spray and drench; 10 days
# [12] = tested on: Piricularia oryzae (rice); format: in vivo; settings: 100 ppm spray and drench; 7 days
Compound,Mortality grading (kill) [1],Mortality grading (kill) (Megoura viceae),Mortality grading (kill) [2],"Damage to plants, pre-emergence (Pea)",% Kill of slugs [3],Mortality grading (kill) (Aphis fabae),"Damage to plants, post-emergence (Maize)","Damage to plants, pre-emergence (Maize)","Damage to plants, pre-emergence (Rice)","Damage to plants, pre-emergence (Kale)",Mortality grading (kill) [4],"Damage to plants, post-emergence (Wheat)","Damage to plants, pre-emergence (Wheat)","Damage to plants, pre-emergence (Carrot)","Damage to plants, pre-emergence (Onion)","Damage to plants, post-emergence (Tomato)","Damage to plants, pre-emergence (Tomato)","Mortality grading (kill), contact test [5]",Mortality grading (kill) [6],"Damage to plants, pre-emergence (Oat)",other results
"Fc1nc(F)c(Cl)c(Nc2c(Cl)c(F)c(Cl)c(F)c2Cl)c1Cl [Compound 43, 3,5-Dichloro-2,6-difluoro-4(3,5-difluoro-2,4,6-trichloroanilino) pyridine]",3 (3 represents over 90% kill),3 (3 represents over 90% kill),0 (O represents less than 30% kill),0,100%,3 (3 represents over 90% kill),2,0,0,1,0 (key: O represents less than 30% kill; 1 represents 30 - 49% kill; 2 represents 60 - 90% kill; 3 represents over 90% kill; C indicates a chemosterilant effect.; A indicates an antifeeding effect.),0,1,0,0,3,1,3 (3 represents over 90% kill),3 (3 represents over 90% kill),0,"Damage to plants, post-emergence (Pea): 5; Damage to plants, post-emergence (Rice): 1; Damage to plants, post-emergence (Kale): 5; Damage to plants, post-emergence (Carrot): 5; Damage to plants, post-emergence (Oat): 4; Damage to plants, post-emergence (Sugar beet): 5; Damage to plants, pre-emergence (Sugar beet): 0; Mortality grading (kill) [7]: 3 (3 represents over 90% kill); Amount of disease grading, disease D (Table 4) (Uncinula necator (vine)): 3 (0 to 5); Mortality grading (kill) [8]: 3 (3 represents over 90% kill); Mortality grading (kill) [9]: 2 (key: O represents less than 30% kill; 1 represents 30 - 49% kill; 2 represents 60 - 90% kill; 3 represents over 90% kill; C indicates a chemosterilant effect.; A indicates an antifeeding effect.); Damage to plants, post-emergence (Barley): 3; Damage to plants, pre-emergence (Barley): 1; Damage to plants, post-emergence (Lettuce): 3; Damage to plants, pre-emergence (Lettuce): 3"
"O=[N+]([O-])c1cc(Cl)c(Nc2c(Cl)c(F)nc(F)c2Cl)c(Cl)c1 [Compound 27, 3,5-Dichloro-2,6-difluoro-4(2,6-dichloro-4-nitroanilino)pyridine]",0 (O represents less than 30% kill),3 (3 represents over 90% kill),2 (2 represents 60 - 90% kill),3,100%,3 (3 represents over 90% kill),0,0,0,4,0 (key: O represents less than 30% kill; 1 represents 30 - 49% kill; 2 represents 60 - 90% kill; 3 represents over 90% kill; C indicates a chemosterilant effect.; A indicates an antifeeding effect.),0,0,4,0,1,3,3 (3 represents over 90% kill),3 (3 represents over 90% kill),0,"Amount of disease grading, disease A (Table 4) [10]: 0 (61 to 100); Amount of disease grading, disease C (Table 4) [11]: 3 (0 to 5); Damage to plants, pre-emergence (Sugar beet): 4; Mortality grading (kill) [7]: 3 (3 represents over 90% kill); Amount of disease grading, disease D (Table 4) (Uncinula necator (vine)): 3 (0 to 5); Mortality grading (kill) [8]: 3 (3 represents over 90% kill); Mortality grading (kill) [9]: 0 (key: O represents less than 30% kill; 1 represents 30 - 49% kill; 2 represents 60 - 90% kill; 3 represents over 90% kill; C indicates a chemosterilant effect.; A indicates an antifeeding effect.); Damage to plants, pre-emergence (Barley): 0; Damage to plants, post-emergence (Lettuce): 3; Damage to plants, pre-emergence (Lettuce): 3"
"N#Cc1c(F)c(F)c(Nc2c(Cl)c(Cl)nc(Cl)c2Cl)c(F)c1F [Compound 42, 4(4-Cyano-2,3,5,6-tetrafluoroanilino)tetrachloropyridine]",3 (3 represents over 90% kill),3 (3 represents over 90% kill),0 (O represents less than 30% kill),2,50%,3 (3 represents over 90% kill),0,3,3,4,0 (key: O represents less than 30% kill; 1 represents 30 - 49% kill; 2 represents 60 - 90% kill; 3 represents over 90% kill; C indicates a chemosterilant effect.; A indicates an antifeeding effect.),0,3,5,5,3,3,3 (3 represents over 90% kill),3 (3 represents over 90% kill),4,"Amount of disease grading, disease E (Table 4) [12]: 0 (61 to 100); Damage to plants, post-emergence (Pea): 1; Damage to plants, post-emergence (Rice): 0; Amount of disease grading, disease A (Table 4) [10]: 3 (0 to 5); Damage to plants, post-emergence (Kale): 5; Damage to plants, post-emergence (Carrot): 5; Damage to plants, post-emergence (Oat): 4; Damage to plants, post-emergence (Sugar beet): 5; Damage to plants, pre-emergence (Sugar beet): 5; Mortality grading (kill) [7]: 3 (3 represents over 90% kill); Mortality grading (kill) [8]: 3 (3 represents over 90% kill); Mortality grading (kill) [9]: 0 (key: O represents less than 30% kill; 1 represents 30 - 49% kill; 2 represents 60 - 90% kill; 3 represents over 90% kill; C indicates a chemosterilant effect.; A indicates an antifeeding effect.); Damage to plants, post-emergence (Barley): 1; Damage to plants, pre-emergence (Barley): 3; Damage to plants, post-emergence (Lettuce): 2; Damage to plants, pre-emergence (Lettuce): 3"
